Values joined by “and” are separate entries in the source; they are usually repeats but may differ in a detail not shown here. Identical values can stand only once. Like-named read-outs stand apart in the source and are kept apart here.
How the values were obtained:
[1] = test system: G2435R mice; experiment: In vivo heat stress challenge in awake restrained G2435R mice (38 °C chamber); set-up: species or system mouse; conditions: pretreatment 30 mg/kg
[2] = test system: FDB muscle cells from R2509C mice; experiment: Ca2+ imaging (Cal520, fura-2) of isolated single FDB cells from R2509C mice, rest, halothane, isoflurane; assay type: cell-based, mouse
Experimental: (§1) WT and mutant mice (R2509C, 8- to 20-week old; R163C, 12- to 16-week old, and G2435R, 12- to 16-week old) were euthanized and flexor digitorum brevis (FDB) muscles were dissected and incubated with 2 mg/mL collagenase (Worthington Biochemical Co., NJ, USA) in the HEPES-Krebs solution containing 2 mg/mL bovine serum albumin for 2–3 h at 37 °C. Following incubation, single cells were separated by gentle trituration in collagenase-free HEPES-Krebs solution. Isolated single FDB cells were seeded on a laminin-coated cover slip of the 35 mm glass-bottom dish or on 96 well plate coated with Cultrex basement membrane matrix (Trevigen, Minneapolis, USA).
Isolated single FDB cells were incubated with 4 µM Cal520-AM (AAT Bioquest, CA, USA) or fura-2-AM (Thermo Fisher Scientific) dye in the HEPES-Krebs solution (140 mM NaCl, 5 mM KCl, 2 mM CaCl2, 1 mM MgCl2, 11 mM glucose, 5 mM HEPES, pH 7.4) for 30 min at 37 °C. The cells were then washed three times with the HEPES-Krebs solution to remove excess dye, and after 30 min of de-esterification, fluorescence images were obtained with a 20X (NA = 0.75) objective lens of an inverted microscope (Nikon TE2000-E Japan) equipped with the sCMOS camera (Zyla, Andor, Belfast, Northern Ireland) using Metamorph v7 (Molecular Devices). Cal520 was excited at 480 ± 15 nm, and fluorescence was measured at wavelengths of 525 ± 25 nm. Fura-2 was excited at alternating lights of 340 ± 6 nm and 380 ± 6 nm, fluorescent light was detected at 510 ± 40 nm, and the ratio of fluorescence excited at 340 nm to that at 380 nm was determined. Imaging experiments were carried out at 26 °C by superfusing a HEPES-Krebs solution with or without halothane or isoflurane. Cpd1 was administered 5 min before measurements. For Mn^2+ quenching experiments, fura-2 was excited at 360 ± 12 nm and emitted fluorescence at 510 ± 40 nm was monitored. The cells were perfused with basal Krebs solution (140 mM NaCl, 5 mM KCl, 1 mM MgCl2, 11 mM glucose, 2 mM CaCl2, 10 mM HEPES, pH 7.4) for 60 s to obtain the baseline signal and then perfused with Mn^2+ quenching Krebs solution (140 mM NaCl, 5 mM KCl, 1 mM MgCl2, 11 mM glucose, 0.5 mM MnCl2, 10 mM HEPES, pH 7.4) for 180 s followed by reperfusion with basal Krebs solution for 120 s.

[3] = test system: mice; experiment: Observation of side effects in mice; assay type: in vivo, mouse
[4] = test system: FDB muscle cells from WT mice; experiment: Ca2+ imaging (Cal520, fura-2) of isolated single FDB cells from WT mice; assay type: cell-based, mouse
Experimental: as §1
Isolated single FDB cells were incubated with 4 µM Cal520-AM (AAT Bioquest, CA, USA) or fura-2-AM (Thermo Fisher Scientific) dye in the HEPES-Krebs solution (140 mM NaCl, 5 mM KCl, 2 mM CaCl2, 1 mM MgCl2, 11 mM glucose, 5 mM HEPES, pH 7.4) for 30 min at 37 °C. The cells were then washed three times with the HEPES-Krebs solution to remove excess dye, and after 30 min of de-esterification, fluorescence images were obtained with a 20X (NA = 0.75) objective lens of an inverted microscope (Nikon TE2000-E Japan) equipped with the sCMOS camera (Zyla, Andor, Belfast, Northern Ireland) using Metamorph v7 (Molecular Devices). Cal520 was excited at 480 ± 15 nm, and fluorescence was measured at wavelengths of 525 ± 25 nm. […]

[5] = test system: R2509C mice; assay type: in vivo, mouse; conditions: for Survival 60 min after administration (survivors/total) / mice surviving 60 min after administration: rescue
[6] = test system: R163C mice; assay type: in vivo, mouse
[7] = Pharmacokinetics after i.p. administration in mice; assay type: in vivo, mouse; conditions: 8-times injection of 1 mg/kg at 10 min intervals
[8] = preventive, 10 mg/kg i.p. 10 min before isoflurane, 10 mg/kg

CCCCCCCCn1cc(C(=O)O)c(=O)c2cc3c(cc21)OCO3 [Cpd1, 6,7-(methylenedioxy)-1-octyl-4-quinolone-3-carboxylic acid]
effect on rise in rectal temperature [1]: greatly slowed the rise in rectal temperature | effect on isoflurane-induced increase in [Ca2+]i ([2]; R2509C cells, 0.1 μM): completely prevented | effect on resting [Ca2+]i (Cal520) ([2]; R2509C cells, 0.1 μM): reduced | Ca2+ signal (Cal520, F/F0) ([2]; R2509C cells, 0.1 μM Cpd1, halothane 0.0001): 1 | Ca2+ signal (Cal520, F/F0) ([2]; R2509C cells, 0.1 μM Cpd1, halothane 0.001): 1.0324 and 1.0472 and 0.9774 and 0.9848 and 0.9736 | Ca2+ signal (Cal520, F/F0) ([2]; R2509C cells, 0.1 μM Cpd1, halothane 0.003): 1.0085 and 1.0149 and 0.9846 and 0.9811 and 0.9717 | Ca2+ signal (Cal520, F/F0) ([2]; R2509C cells, 0.1 μM Cpd1, halothane 0.01): 1.0131 and 1.0119 and 0.9966 and 0.9808 and 0.9633 | Ca2+ signal (Cal520, F/F0) ([2]; R2509C cells, 0.1 μM Cpd1, halothane 0.03): 0.9989 and 1.0012 and 1.0266 and 1.0111 and 1.0033 | Ca2+ signal (Cal520, F/F0) ([2]; R2509C cells, 0.1 μM Cpd1, halothane 0.1): 1.0006 and 0.9977 and 1.0575 and 1.0571 and 1.0156 | Ca2+ signal (fura-2 ratio) ([2]; R2509C cells, 0.1 μM Cpd1, isoflurane 0): 1.236 and 1.532 and 1.49 and 1.463 and 1.64 and 1.372 and 1.497 and 1.401 | Ca2+ signal (fura-2 ratio) ([2]; R2509C cells, 0.1 μM Cpd1, isoflurane 0.1): 1.237 and 1.533 and 1.482 and 1.467 and 1.643 and 1.374 and 1.485 and 1.496 | Ca2+ signal (fura-2 ratio) ([2]; R2509C cells, 0.1 μM Cpd1, isoflurane 0.2): 1.24 and 1.549 and 1.492 and 1.502 and 1.673 and 1.396 and 1.504 and 1.444 | Ca2+ signal (fura-2 ratio) ([2]; R2509C cells, 0.1 μM Cpd1, isoflurane 0.5): 1.266 and 1.58 and 1.488 and 1.503 and 1.677 and 1.451 and 1.62 and 1.544 | effect on resting [Ca2+]i (fura-2) ([2]; R2509C cells, 0.1 and 0.3 µM): reduced [Ca^2+]i in R2509C cells in a dose-dependent manner | effect on halothane-induced increases in [Ca2+]i ([2]; R2509C cells, pretreatment 0.1 µM): completely abolished | Ca2+ signal with Cpd1 relative to None = 1 (sheet Fig S1b) ([2]; R2509C, single experiments): 0.9373 and 0.9655 and 0.9601 and 0.9482 and 0.7826 and 0.8571 | side effects [3]: no apparent side effects of Cpd1 other | effect on resting [Ca2+]i (fura-2) ([4]; WT cells, 0.1 and 0.3 µM): no significant effect | Ca2+ signal with Cpd1 relative to None = 1 (sheet Fig S1b) ([4]; WT, single experiments): 0.9888 and 0.981 and 0.9775 and 0.9827 and 0.9913 | effect on rise in rectal temperature ([5]; 1 mg/kg i.p. 8 times at 10 min intervals, isoflurane): successfully prevented rise in the rectal temperature | Survival 90 min after isoflurane challenge (survivors/total) ([5]; 1 mg/kg i.p. 8 times every 10 min): all the mice survived | effect of second and third administrations on rectal temperature ([5]; 3 mg/kg i.p. each time rectal temperature reached 39 °C, isoflurane): successfully decreased the rectal temperature | effect on rise in rectal temperature ([5]; preventive, 3 mg/kg i.p.): did not prevent rise in rectal temperature | Survival after 90 min of anesthesia (survivors/total) ([5]; preventive, 3 mg/kg i.p. 10 min before isoflurane, 3 mg/kg): 1 out of 6 | Survival after 90 min of anesthesia (survivors/total) ([5]; preventive, 3 mg/kg i.p. 10 min before isoflurane, listed as Cpd 1, 3 mg/kg): 1/6 | Time to death ([5]; preventive, 3 mg/kg i.p., n = 5): 47 ± 15 min | effect on rise in rectal temperature ([5]; preventive, 10 mg/kg i.p.): successfully prevented any rise in rectal temperature | Maximum rectal temperature [5, 8]: 36.1797 °C and 35.7812 °C and 35.4844 °C and 36.3594 °C and 36.1344 °C and 36.1406 °C | Survival after 90 min of anesthesia (survivors/total) [5, 8]: All the treated mice survived | Survival 60 min after administration (survivors/total) ([5]; 3 mg/kg i.p. at 39 °C): 6/10 | mice surviving 60 min after administration ([5]; 3 mg/kg i.p. at 39 °C): 60% | Survival 60 min after administration (survivors/total) ([5]; 10 mg/kg i.p. at 39 °C): 8/8 | mice surviving 60 min after administration ([5]; 10 mg/kg i.p. at 39 °C): 100% | survival curve status code of one mouse after isoflurane anesthesia (code not defined) ([6]; 2.5 mg/kg, at 11 minutes): 1 | survival curve status code of one mouse after isoflurane anesthesia (code not defined) ([6]; 2.5 mg/kg, at 12 minutes): 1 | survival curve status code of one mouse after isoflurane anesthesia (code not defined) ([6]; 2.5 mg/kg, at 13 minutes): 1 | survival curve status code of one mouse after isoflurane anesthesia (code not defined) ([6]; 2.5 mg/kg, at 14 minutes): 1 | survival curve status code of one mouse after isoflurane anesthesia (code not defined) ([6]; 5 mg/kg, at 12 minutes): 1 | survival curve status code of one mouse after isoflurane anesthesia (code not defined) ([6]; 5 mg/kg, at 15 minutes): 1 | survival curve status code of one mouse after isoflurane anesthesia (code not defined) ([6]; 5 mg/kg, at 30 minutes): 0 | rescue effect on [Ca2+]i during MH crisis ([6]; 10 mg/kg 15 min after induction of isoflurane anesthesia): rapidly decreased [Ca^2+]i to the levels measured in WT muscle | survival curve status code of one mouse after isoflurane anesthesia (code not defined) ([6]; 10 mg/kg, at 30 minutes): 0 | effect on MH episode and death under isoflurane ([6]; pretreatment at doses of 5 and 10 mg/kg): effectively prevented the MH episode and death | plasma concentration ([7]; female, 10 min): 70 ng/mL and 90 ng/mL | plasma concentration ([7]; male, 5 min): 610 ng/mL and 360 ng/mL

From PMC8277899, “A novel RyR1-selective inhibitor prevents and rescues sudden death in mouse models of malignant hyperthermia and heat stroke” (Nature Communications, 2021)
